From PMC6662706, “Short amylin receptor antagonist peptides improve memory deficits in Alzheimer’s disease mouse model” (Scientific Reports, 2019)
Positions of bridges follow the written chain, without caps; N, C: chain ends. No end group written: not given here.

Assays:
[1] = set-up: method as in PMID 29067318; details: mouse, not told; cited from earlier work
[2] = Brain uptake of R5 compared with davalintide, wild-type and het CTR mice; format: in vivo, mouse; details: Cy5.5 labeled, ip 0.1 mmole, intact brain imaged 2 h post-injection, wild-type and het CTR mice, n=5 per group
Experimental: For peptide R5 brain uptake in comparison to Davlintide, wild-type littermate (C57BL/6 background) mice and heterozygous CTR knockdown mice (50% CTR expression level compared to wild type control mice and presumably with 50% AMY receptor expression level) was used (n=5 in each group). Mouse brains were extracted after 2h from a single injection and fluorescence in brains was quantified as mentioned above.
Supplementary Figure S3: The comparison of brain permeability for R5 and Davalintide.

[3] = Ex vivo NIR fluorescence brain imaging after ip injection (brain penetration); format: in vivo, mouse; details: wild-type mice, 0, 0.6, 2, 10, 20 mg/kg single ip dose, 2 h, n = 3 per dose
Excerpt: Blood brain barrier (BBB) penetration can limit the potential of long sequence peptides as therapeutic agents in central nervous system (CNS). Previously, we have reported that a cyclized form of AC253 peptide and to a lesser degree its linear form can both penetrate the BBB at therapeutically relevant levels, and are localized to the hippocampus and cortex, regions relevant to memory and learning processes. Therefore, we examined the ability of Cy5.5 labeled peptide fragments (R5, and R14) to penetrate BBB in wild-type mice using NIR fluorescence ex vivo brain imaging. Brain fluorescence resulting from either R5 or R14 was assessed against full length AC253 2 h after a single intraperitoneal (ip) injection of peptides. […] Fluorescence signals were distributed throughout the cortex, but particularly strong within the hippocampal regions, where a very high density of amylin receptor expression has been reported. […]
In vivo brain penetration and pharmacokinetics of the peptides were determined in 6-month-old male or female wild-type (C57BL/6 background) and heterozygous CTR mice (het-CTR). […]
For ex vivo imaging experiments and peptide brain uptake, we used age matched 6-month-old wild-type littermate (C57BL/6 background) mice. […] Region of interest was drawn around the brain region and analyzed using the Kodak ID 3.6 software and the mean fluorescence intensity was recorded. […]

[4] = In vitro proteolytic stability in human serum; format: in vitro ADME; details: 37°C, intact peptide at different time points estimated by RP-HPLC
Experimental: Subsequently, we investigated the proteolytic stability of R5, and R14 compared to AC253. […] By assessing the main degradation fragments for both peptides using MALDI-TOF, we found both peptides to be cleaved at the basic arginine amino acids.
Supplementary Figure S2: The comparison of bio-distribution for the fragments and their parent peptide. (A) Ex vivo fluorescence showing bio-distribution images for Cy5.5-R5, R14, AC253 in different organs at after a 2 h of a single ip injection of the peptides (0.1 mmol in 200µl saline). (B) Quantification of peptides fluorescence in each organ (n=3). (C) In vitro stability of R5, R14, and AC253 peptides in human serum compared with AC253 at 37°C. The amount of intact peptide in human serum at different time points was estimated using RP-HPLC.

[5] = molecular target: T1, AMY3 receptor (CTR+RAMP3) expressed on HEK293 cells (HEK-AMY3) (Homo sapiens, UniProt O60896+P30988); assay: Peptide array-cell binding assay (SPOT cellulose membrane, GFP-labeled cells); details: library R1-R14 on cellulose membrane, GFP-labeled HEK-AMY3 vs HEK-WT and HEK-CTR cells
T1 construct: expressed in transfected cells
T1 sequence (P30988 25-474): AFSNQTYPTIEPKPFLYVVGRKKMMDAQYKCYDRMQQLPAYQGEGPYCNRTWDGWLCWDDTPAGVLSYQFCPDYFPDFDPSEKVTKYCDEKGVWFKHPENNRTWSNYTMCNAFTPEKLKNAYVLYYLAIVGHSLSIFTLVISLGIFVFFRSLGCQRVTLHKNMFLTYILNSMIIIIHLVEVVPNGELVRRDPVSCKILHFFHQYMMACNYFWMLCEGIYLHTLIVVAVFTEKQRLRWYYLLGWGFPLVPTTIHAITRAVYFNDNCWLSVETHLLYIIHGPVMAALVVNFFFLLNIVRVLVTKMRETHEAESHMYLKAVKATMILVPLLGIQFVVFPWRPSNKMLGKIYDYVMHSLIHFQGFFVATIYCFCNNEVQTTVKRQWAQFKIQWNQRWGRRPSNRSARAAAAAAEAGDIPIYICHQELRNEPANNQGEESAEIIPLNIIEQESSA
T1 sequence (O60896 24-148): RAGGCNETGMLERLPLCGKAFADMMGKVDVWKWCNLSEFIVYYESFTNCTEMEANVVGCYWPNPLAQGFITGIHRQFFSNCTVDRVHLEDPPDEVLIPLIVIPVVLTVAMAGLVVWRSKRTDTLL
Excerpt: In order to identify shorter peptides with selective recognition and binding to amylin receptor, enhanced metabolic stability and brain penetrability than the linear full length peptide, we designed a peptide library comprised of 14 different sequences, namely, R1-R14. Fragments (R1−R13) are 12 amino acids in length and peptide R14 is 14 amino acids. The initial fragment comprised the first 12 amino acids from the N-terminus of AC253 sequence, and subsequent fragments derived from shifting one amino acid at a time, as depicted in Supplemental Fig. S1A. […] The relative binding affinities of peptide fragments were determined through measuring and plotting the net fluorescence intensity of the bound GFP labeled live cells on each spot as measured with a fluorescence Kodak imager (Supplemental Fig. S1C). […]
To screen peptide library for amylin receptor binding affinity, transfected GFP-positive Human Embryonic Kidney 293 cells that express AMY3 receptor (CTR+RAMP3) as previously reported was used ^8. […] The membrane was scanned at 465 nm excitation and 535 nm emission and the net fluorescence intensity of each peptide spot was quantified using Kodak IS2000MM Image station (GE Healthcare Systems/ART Inc). […]

[6] = system: hippocampal LTP (CA1); assay: Hippocampal long-term potentiation (LTP) in slices from wild type mice; set-up: species or system mouse; details: wild type mouse slices, 250 nM
Experimental: We examined whether the peptide fragments were capable of influencing Aβ- or hAmylin-induced reduction of hippocampal LTP in mice. Exposure of hippocampal slices from wild-type mice to hAmylin (50 nM) or Aβ (50 nM) depressed LTP induced by a weak tetanization protocol at the CA1 region as previously reported[20],[30]. To determine whether peptides affected hAmylin or Aβ- induced depression of LTP, we applied 250 nM R5 or R14 continuously for 5 min prior to exposure of the hippocampal slices to 50 nM hAmylin or Aβ and the subsequent LTP induction. […] We therefore sought to determine whether peptide fragments were also capable of improving LTP levels in the same TgCRND8 AD mouse model. […] Importantly, doses of the short peptide fragments used in these experiments were equimolar to those used for AC253 and pramlintide in our previous studies[20],[30].
For electrophysiology experiment, hippocampal slices (400-μm thick) were prepared using a vibratome from wild type and TgCRND8 mice (8 month of age, male or female). For long-term potentiation (LTP) measurement, the stimulus strength was set to elicit 40–50% of the maximum fEPSP (field excitatory postsynaptic potential) amplitude and test pulses were delivered once every 30s. LTP was induced by 3-theta-burst stimulation protocol (each burst consisted of four pulses at 100 Hz with a 200-ms interburst interval). All drugs and chemicals were applied directly to the slice via bath perfusion.
Brains were quickly removed from mice following decapitation, placed in a cold artificial cerebral spinal fluid (aCSF) on a vibratome chamber, and transverse sections cut through the hippocampus. The aCSF contained (in millimolar 124 NaCl, 3 KCl, 2.4 CaCl2, 2 MgCl2, 1.25 NaH2PO4, 26 NaHCO3, and 10 D-glucose and was equilibrated with 95 % O2 and 5 % CO2. Hippocampal slices (400-μm thick) were maintained in aCSF-filled holding chamber at room temperature for at least 1 h and individually transferred to the submerged glass bottom recording chamber, which was constantly perfused with aCSF (2 ml/min) at 30 °C. Field excitatory postsynaptic potential (fEPSP) was recorded with a metallic (Pt/Ir) electrode (FHC, Bowdoin, ME) from the stratum radiatum layer of Cornu ammonis 1 region of the hippocampus (CA1) area, and the Schaffer collateral afferents were stimulated with 100-μs test pulses via a bipolar cluster electrode (FHC). For long-term potentiation (LTP) experiments, the stimulus strength was set to elicit 40–50 % of the maximum fEPSP amplitude and test pulses were delivered to Schaffer collaterals once every 30 s. […] Before 3-TBS or drug application, the responses were monitored for at least 10 min to ensure a stable baseline of fEPSP. […]

pramlintide: synthetic analog of amylin (KCNTATCATQRLANFLVHSSNNFGPILPPTNVGSNTY-NH2; disulfide 2-7; chains of the INN, looked up)
brain permeability after systemic administration compared with cAC253 or R5 [1]: lower brain permeability

davalintide [reference compound]
brain permeability, R5 versus davalintide [2]: lower brain permeability

LGRLSQELHRLQTY-NH2 [R14]
accumulation in the brain at increasing dose [3]: dose-dependent | half-life [4]: 1.5 h

LQTYPRTNTGSN [R11]
relative binding to HEK-AMY3 cells in library screening [5]: minimal binding | effect of peptide alone on hippocampal LTP [6]: did not impair LTP
